# Assay results reported in patent publication US20130157954A1, “METHODS FOR TREATMENT OR PROPHYLAXIS OF KIDNEY OR LIVER DYSFUNCTION” (NPS PHARMACEUTICALS, INC., priority 2010, published 2013).
# Test: Example 1: kidney biomarkers (urea nitrogen, creatinine, GFR) in short bowel syndrome patients, every four weeks for 24 weeks; also sorted by >5% change from baseline
# Format: in vivo, Human
# Details: for CREATININE (RATE BLANKED) change from baseline −5% <= and <=5%, number of patients / CREATININE (RATE BLANKED) change from baseline −5% <= and <=5%, percent of patients / GFR change from baseline <−5%, number of patients / GFR change from baseline <−5%, percent of patients / GFR change from baseline >5%, number of patients / GFR change from baseline >5%, percent of patients / GFR change from baseline −5% <= and <=5%, number of patients / GFR change from baseline −5% <= and <=5%, percent of patients / UREA NITROGEN change from baseline <−5%, number of patients / UREA NITROGEN change from baseline <−5%, percent of patients / UREA NITROGEN change from baseline >5%, number of patients / UREA NITROGEN change from baseline >5%, percent of patients / UREA NITROGEN change from baseline −5% <= and <=5%, number of patients / UREA NITROGEN change from baseline −5% <= and <=5%, percent of patients / CREATININE (RATE BLANKED) change from baseline <−5%, number of patients / CREATININE (RATE BLANKED) change from baseline <−5%, percent of patients / CREATININE (RATE BLANKED) change from baseline >5%, number of patients / CREATININE (RATE BLANKED) change from baseline >5%, percent of patients: 0.1 mg/kg/day
# Description: Human patients with short bowel syndrome were divided into three groups: a control group (16 total individuals) to receive placebo, an experimental group (35 total individuals) to receive teduglutide at 0.05 mg/kg/day throughout the study, and an experimental group (32 total individuals) to receive teduglutide at 0.1 mg/kg/day throughout the study. Patients were treated by subcutaneous injection of placebo or the appropriate dose of teduglutide. As individuals with short bowel syndrome are likely to experience associated liver and kidney disease, known biomarkers of liver and kidney function were monitored every four weeks, for 24 weeks. The liver biomarkers tested included total bilirubin, ALT and AST and ALP. The kidney biomarkers tested included urea nitrogen, creatinine and GFR. Before administration of placebo or teduglutide, diagnostic biomarker levels were tested to establish a baseline for each individual.
# To visualize the effect of GLP-2 on the levels of the diagnostic biomarkers, the average change from baseline was calculated for the placebo and teduglutide treated groups for each visit after a baseline was established. The average change from baseline of each group is depicted in FIGS. 1-7. The numerical figures for each diagnostic biomarker at each time point are depicted in Table 1.
# The raw data for this sorting is reproduced in Table 2 below.
smiles,measurement,setting,value
CC[C@H](C)[C@H](NC(=O)[C@H](Cc1ccccc1)NC(=O)[C@H](CC(=O)O)NC(=O)[C@H](CCCNC(=N)N)NC(=O)[C@H](C)NC(=O)[C@H](C)NC(=O)[C@H](CC(C)C)NC(=O)[C@H](CC(N)=O)NC(=O)[C@H](CC(=O)O)NC(=O)[C@H](CC(C)C)NC(=O)[C@@H](NC(=O)[C@@H](NC(=O)[C@H](CC(N)=O)NC(=O)[C@H](CCSC)NC(=O)[C@H](CCC(=O)O)NC(=O)[C@H](CC(=O)O)NC(=O)[C@H](CO)NC(=O)[C@H](Cc1ccccc1)NC(=O)[C@H](CO)NC(=O)CNC(=O)[C@H](CC(=O)O)NC(=O)CNC(=O)[C@@H](N)Cc1c[nH]cn1)[C@@H](C)O)[C@@H](C)CC)C(=O)N[C@@H](CC(N)=O)C(=O)N[C@@H](Cc1c[nH]c2ccccc12)C(=O)N[C@@H](CC(C)C)C(=O)N[C@H](C(=O)N[C@@H](CCC(N)=O)C(=O)N[C@H](C(=O)N[C@@H](CCCCN)C(=O)N[C@H](C(=O)N[C@H](C(=O)N[C@@H](CC(=O)O)C(=O)O)[C@@H](C)O)[C@@H](C)CC)[C@@H](C)O)[C@@H](C)CC [teduglutide],"CREATININE (RATE BLANKED) change from baseline −5% <= and <=5%, number of patients",week 12,4
same,"CREATININE (RATE BLANKED) change from baseline −5% <= and <=5%, percent of patients",week 12,(12.5%)
same,"GFR change from baseline <−5%, number of patients",week 12,11
same,"GFR change from baseline <−5%, percent of patients",week 12,(34.4%)
same,"GFR change from baseline >5%, number of patients",week 12,9
same,"GFR change from baseline >5%, percent of patients",week 12,(28.1%)
same,"GFR change from baseline −5% <= and <=5%, number of patients",week 12,10
same,"GFR change from baseline −5% <= and <=5%, percent of patients",week 12,(31.3%)
same,"UREA NITROGEN change from baseline <−5%, number of patients",week 12,13
same,"UREA NITROGEN change from baseline <−5%, percent of patients",week 12,(40.6%)
same,"UREA NITROGEN change from baseline >5%, number of patients",week 12,14
same,"UREA NITROGEN change from baseline >5%, percent of patients",week 12,(43.8%)
same,"UREA NITROGEN change from baseline −5% <= and <=5%, number of patients",week 12,3
same,"UREA NITROGEN change from baseline −5% <= and <=5%, percent of patients",week 12,(9.4%)
same,"CREATININE (RATE BLANKED) change from baseline <−5%, number of patients",week 16,10
same,"CREATININE (RATE BLANKED) change from baseline <−5%, percent of patients",week 16,(31.3%)
same,"CREATININE (RATE BLANKED) change from baseline >5%, number of patients",week 16,12
same,"CREATININE (RATE BLANKED) change from baseline >5%, percent of patients",week 16,(37.5%)
same,"CREATININE (RATE BLANKED) change from baseline −5% <= and <=5%, number of patients",week 16,8
same,"CREATININE (RATE BLANKED) change from baseline −5% <= and <=5%, percent of patients",week 16,(25.0%)
same,"GFR change from baseline <−5%, number of patients",week 16,12
same,"GFR change from baseline <−5%, percent of patients",week 16,(37.5%)
same,"GFR change from baseline >5%, number of patients",week 16,12
same,"GFR change from baseline >5%, percent of patients",week 16,(37.5%)
same,"GFR change from baseline −5% <= and <=5%, number of patients",week 16,6
same,"GFR change from baseline −5% <= and <=5%, percent of patients",week 16,(18.8%)
same,"UREA NITROGEN change from baseline <−5%, number of patients",week 16,9
same,"UREA NITROGEN change from baseline <−5%, percent of patients",week 16,(28.1%)
same,"UREA NITROGEN change from baseline >5%, number of patients",week 16,9
same,"UREA NITROGEN change from baseline >5%, percent of patients",week 16,(28.1%)
same,"UREA NITROGEN change from baseline −5% <= and <=5%, number of patients",week 16,12
same,"UREA NITROGEN change from baseline −5% <= and <=5%, percent of patients",week 16,(37.5%)
same,"CREATININE (RATE BLANKED) change from baseline <−5%, number of patients",week 20,7
same,"CREATININE (RATE BLANKED) change from baseline <−5%, percent of patients",week 20,(21.9%)
same,"CREATININE (RATE BLANKED) change from baseline >5%, number of patients",week 20,13
same,"CREATININE (RATE BLANKED) change from baseline >5%, percent of patients",week 20,(40.6%)
same,"CREATININE (RATE BLANKED) change from baseline −5% <= and <=5%, number of patients",week 20,9
same,"CREATININE (RATE BLANKED) change from baseline −5% <= and <=5%, percent of patients",week 20,(28.1%)
same,"GFR change from baseline <−5%, number of patients",week 20,11
same,"GFR change from baseline <−5%, percent of patients",week 20,(34.4%)
same,"GFR change from baseline >5%, number of patients",week 20,8
same,"GFR change from baseline >5%, percent of patients",week 20,(25.0%)
same,"GFR change from baseline −5% <= and <=5%, number of patients",week 20,10
same,"GFR change from baseline −5% <= and <=5%, percent of patients",week 20,(31.3%)
same,"UREA NITROGEN change from baseline <−5%, number of patients",week 20,12
same,"UREA NITROGEN change from baseline <−5%, percent of patients",week 20,(37.5%)
same,"UREA NITROGEN change from baseline >5%, number of patients",week 20,11
same,"UREA NITROGEN change from baseline >5%, percent of patients",week 20,(34.4%)
same,"UREA NITROGEN change from baseline −5% <= and <=5%, number of patients",week 20,6
same,"UREA NITROGEN change from baseline −5% <= and <=5%, percent of patients",week 20,(18.8%)
same,"CREATININE (RATE BLANKED) change from baseline <−5%, number of patients",week 24,11
same,"CREATININE (RATE BLANKED) change from baseline <−5%, percent of patients",week 24,(34.4%)
same,"CREATININE (RATE BLANKED) change from baseline >5%, number of patients",week 24,9
same,"CREATININE (RATE BLANKED) change from baseline >5%, percent of patients",week 24,(28.1%)
same,"CREATININE (RATE BLANKED) change from baseline −5% <= and <=5%, number of patients",week 24,9
same,"CREATININE (RATE BLANKED) change from baseline −5% <= and <=5%, percent of patients",week 24,(28.1%)
same,"GFR change from baseline <−5%, number of patients",week 24,6
same,"GFR change from baseline <−5%, percent of patients",week 24,(18.8%)
same,"GFR change from baseline >5%, number of patients",week 24,14
same,"GFR change from baseline >5%, percent of patients",week 24,(43.8%)
same,"GFR change from baseline −5% <= and <=5%, number of patients",week 24,9
same,"GFR change from baseline −5% <= and <=5%, percent of patients",week 24,(28.1%)
same,"UREA NITROGEN change from baseline <−5%, number of patients",week 24,14
same,"UREA NITROGEN change from baseline <−5%, percent of patients",week 24,(43.8%)
same,"UREA NITROGEN change from baseline >5%, number of patients",week 24,13
same,"UREA NITROGEN change from baseline >5%, percent of patients",week 24,(40.6%)
same,"UREA NITROGEN change from baseline −5% <= and <=5%, number of patients",week 24,2
same,"UREA NITROGEN change from baseline −5% <= and <=5%, percent of patients",week 24,(6.3%)
same,percent of the group experiencing a decrease in GFR greater than 5% vs placebo,both groups receiving teduglutide,always less than the percent of the group receiving placebo
same,"creatinine levels, average change versus baseline (FIG. 9)","groups receiving teduglutide, placebo increased",remained stable or decreased slightly
